Results taken from US20210078958A1, “QUINAZOLINE DERIVATIVE AND USE THEREOF” (MEDSHINE DISCOVERY INC., priority 2017, published 2021).
Read-outs that look alike come from different tables or passages of the source.

Key:
[1] = test system: subcutaneous xenograft tumor of human gastric cancer NCI-N87 cells; assay type: in vivo; conditions: for Tumor volume (mm3) (Day 21) / T/C (%) / TGI (%): 3 mg/kg (D0-7) + 1 mg/kg (D8-21); for Tumor volume (mm3) (Day 21): NCI-N87 xenograft, Mean ± SEM; for T/C (%) / TGI (%): day 21
Procedure: Purpose of the assay: to evaluate the in vivo efficacy of compounds to be tested on subcutaneous xenograft tumor of human gastric cancer NCI-N87 cells in a BALB/c nude mouse model.
Animals of the assay: female BALB/c nude mice, 6-8 weeks old, weighted 18-22 grams; supplier: shanghai sippr bk laboratory animals Ltd.
Human gastric cancer NCI-N87 cells were cultured in monolayer in vitro. The culture conditions were RPMI-1640 medium plus 10% fetal bovine serum, 100 U/mL penicillin, 100 μg/mL streptomycin and 2 mM glutamine, 37° C., 5% CO2. The passaging was performed by the conventional digestion with trypsin-EDTA twice a week. When the cell saturation was 80%-90%, the cells were collected, counted and inoculated.
0.2 mL (10×10^6 cells) of NCI-N87 cells were inoculated subcutaneously on the right back of each nude mouse (PBS+Matrigel, 1:1). When the average tumor volume reached 145 mm^3, administration to each group was started.
The test compounds were formulated into a 0.3 mg/mL clear solution in the solvents of 10% NMP (N-methylpyrrolidone)+10% ethylene glycol stearate+80% water.
The assay index is to investigate whether tumor growth is inhibited, delayed or cured. Tumor diameter was measured twice a week with a vernier caliper. The calculation formula of tumor volume is: V=0.5a×b^2, wherein a and b represent the long and short diameters of tumor, respectively.
The antitumor efficacy of the compounds were evaluated by TGI (%) or relative tumor proliferation rate T/C (%). TGI (%) reflects the tumor growth inhibition rate. TGI (%) is calculated as follows: TGI (%)=[1−(average tumor volume at the end of administration for a certain treatment group−average tumor volume at the beginning of administration for this treatment group)/(average tumor volume at the end of treatment for a solvent control group−average tumor volume at the beginning of administration for this solvent control group)][…].
Relative tumor proliferation rate T/C (%): the calculation formula is as follows: T/C %=TRTV/CRTV (TRTV: RTV for the treatment group; CRTV: RTV for the negative control group). Relative tumor volume (RTV) is calculated based on tumor measurement results. The calculation formula is RTV=Vt/V0, wherein V0 is the average tumor volume measured at the beginning of administration (i.e., d0) to each group, Vt is the average tumor volume at a certain measurement, and the data for TRTV and CRTV were taken on the same day.
The tumor weight was measured after the assay is over and the T/C weight percentage was calculated. T weight and C weight represent the tumor weight of the administration group and the vehicle control group, respectively.
Statistical analysis included the mean and standard error (SEM) of tumor volume at each time point in each group. […] The comparison between two groups was analyzed by T-test, and the comparison among three or more groups was analyzed by one-way ANOVA. […] All data analysis was carried out with SPSS 17.0. p<0.05 was considered a significant difference.

[2] = target: HER1 (ErbB1) (Homo sapiens, UniProt P00533); assay: in vitro enzyme activity, HER1 (ErbB1); assay type: biochemical; conditions: human ErbB1, [γ-33P]ATP, poly(Glu, Tyr) substrate
HER1 (ErbB1), sequence (P00533 25-1210): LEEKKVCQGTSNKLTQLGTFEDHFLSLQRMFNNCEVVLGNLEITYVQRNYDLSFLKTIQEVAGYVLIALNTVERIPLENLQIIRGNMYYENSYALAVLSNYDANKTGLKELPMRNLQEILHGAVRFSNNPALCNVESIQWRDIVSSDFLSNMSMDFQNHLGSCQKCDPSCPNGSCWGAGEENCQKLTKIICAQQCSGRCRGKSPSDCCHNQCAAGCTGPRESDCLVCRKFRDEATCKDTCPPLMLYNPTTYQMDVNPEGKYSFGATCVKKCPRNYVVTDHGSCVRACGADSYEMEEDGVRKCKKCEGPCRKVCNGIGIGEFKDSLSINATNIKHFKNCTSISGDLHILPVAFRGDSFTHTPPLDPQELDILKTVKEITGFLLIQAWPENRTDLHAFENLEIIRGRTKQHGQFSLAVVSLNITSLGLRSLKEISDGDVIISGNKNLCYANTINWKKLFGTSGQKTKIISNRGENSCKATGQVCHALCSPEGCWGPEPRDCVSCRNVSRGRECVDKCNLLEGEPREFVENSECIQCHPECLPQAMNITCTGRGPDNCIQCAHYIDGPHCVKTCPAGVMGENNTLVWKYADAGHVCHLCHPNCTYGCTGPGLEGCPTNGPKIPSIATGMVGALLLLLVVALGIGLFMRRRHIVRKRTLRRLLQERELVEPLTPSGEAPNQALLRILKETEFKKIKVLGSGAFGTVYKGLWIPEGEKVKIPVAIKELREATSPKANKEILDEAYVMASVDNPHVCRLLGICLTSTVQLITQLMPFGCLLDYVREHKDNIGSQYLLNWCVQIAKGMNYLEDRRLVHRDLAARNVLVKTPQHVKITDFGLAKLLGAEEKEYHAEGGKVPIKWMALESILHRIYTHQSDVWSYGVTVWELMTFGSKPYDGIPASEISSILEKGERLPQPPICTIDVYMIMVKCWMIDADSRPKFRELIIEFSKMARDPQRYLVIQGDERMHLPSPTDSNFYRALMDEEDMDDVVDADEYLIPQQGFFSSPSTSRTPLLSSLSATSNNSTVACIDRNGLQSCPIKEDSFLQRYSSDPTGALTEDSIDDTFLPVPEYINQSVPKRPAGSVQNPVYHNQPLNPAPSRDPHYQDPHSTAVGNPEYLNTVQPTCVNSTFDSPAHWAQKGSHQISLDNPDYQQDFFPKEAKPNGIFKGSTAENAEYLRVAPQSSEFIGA
Procedure: The purpose of this assay is to detect the in vitro inhibitory activity of compounds on HER1 (ErbB1), HER2 (ErbB2), and HER4 (ErbB4). The enzymes used in this assay are human ErbB1, ErbB2 and ErbB4. Eurofins Pharma Discovery Service provided the method for activity detection.
Steps and Method of the Assay (96-Well Plate):
A buffer solution of the test compounds in a dilution of 5-fold (5 μL), polypeptide substrate poly(Glu, Tyr) (4:1) (2.5 μL), ErbB (4-20 ng, 2.5 μL), MnCl2 (50 mM, 1.25 μL), dH2O (3.75 μL), and [γ-^33P]ATP (10 μL) were added, and incubated at 30° C. for 10 minutes. The reaction was terminated by adding 3% phosphoric acid. 10 μL of the sample was taken and transferred to Filtermate A. The filter disc was washed 3 times with 75 mM phosphoric acid and once with methanol. The filter disc was transferred to a sealed plastic bag and the scintillation mixture (4 mL) was added. The intensity of the emitted photon was detected by a scintillation luminescence counter. The CPM (times/min) of the enzyme sample was compared with the CPM of the internal control sample. The level of photon intensity reflected the degree of the tyrosine kinase activity.

[3] = target: T1, CYP2C9 (Homo sapiens, UniProt P11712); assay: inhibition of CYP enzyme activity in human liver microsome, CYP2C9; assay type: in vitro ADME
T1 construct: in the assay of CYP enzyme activity in human liver microsome; from tissue; host or cells: human liver microsome
T1 sequence (P11712 whole entry): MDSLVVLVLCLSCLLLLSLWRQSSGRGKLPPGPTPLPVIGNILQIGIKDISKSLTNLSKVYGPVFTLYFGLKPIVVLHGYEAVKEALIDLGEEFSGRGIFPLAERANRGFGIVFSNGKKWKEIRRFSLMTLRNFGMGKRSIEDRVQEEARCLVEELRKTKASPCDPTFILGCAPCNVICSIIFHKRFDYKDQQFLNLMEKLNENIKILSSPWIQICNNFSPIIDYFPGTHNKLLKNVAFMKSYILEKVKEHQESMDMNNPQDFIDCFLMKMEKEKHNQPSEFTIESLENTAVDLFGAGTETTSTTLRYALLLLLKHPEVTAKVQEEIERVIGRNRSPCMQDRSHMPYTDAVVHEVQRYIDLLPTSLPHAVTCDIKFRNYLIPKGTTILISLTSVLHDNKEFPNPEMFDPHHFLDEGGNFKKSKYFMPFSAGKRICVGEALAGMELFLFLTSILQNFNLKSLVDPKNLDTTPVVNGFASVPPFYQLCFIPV
From the text: (§1) The results of the compounds disclosed herein and the reference compound Poziotinib in the assay of CYP enzyme activity in human liver microsome were shown in the following table (Table 8).

[4] = target: T2, CYP1A2 (Homo sapiens, UniProt P05177); assay: inhibition of CYP enzyme activity in human liver microsome, CYP1A2; assay type: in vitro ADME
T2 construct: in the assay of CYP enzyme activity in human liver microsome; from tissue; host or cells: human liver microsome
T2 sequence (P05177 1-516): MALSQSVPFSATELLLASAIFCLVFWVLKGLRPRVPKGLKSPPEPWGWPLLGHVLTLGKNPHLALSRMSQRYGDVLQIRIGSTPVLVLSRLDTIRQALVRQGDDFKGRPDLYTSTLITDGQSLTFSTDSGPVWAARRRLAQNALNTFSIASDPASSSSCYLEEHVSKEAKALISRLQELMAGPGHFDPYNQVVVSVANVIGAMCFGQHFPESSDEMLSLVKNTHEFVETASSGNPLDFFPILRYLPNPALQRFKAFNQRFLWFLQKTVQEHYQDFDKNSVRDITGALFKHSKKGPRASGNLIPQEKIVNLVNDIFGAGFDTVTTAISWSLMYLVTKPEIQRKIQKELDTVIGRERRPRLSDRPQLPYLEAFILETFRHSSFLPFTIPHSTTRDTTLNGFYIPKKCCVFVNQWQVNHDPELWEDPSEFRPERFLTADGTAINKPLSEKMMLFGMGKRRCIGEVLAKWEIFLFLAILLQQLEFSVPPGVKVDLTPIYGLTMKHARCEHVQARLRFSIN
From the text: as §1

Row | SMILES | Tumor volume (mm3) (Day 21) [1] | T/C (%) [1] [%] | TGI (%) [1] [%] | body weight of test animals (reference index for drug toxicity) ([1]; mouse, in vivo) | IC50 [2] [µM] | IC50 [3] [µM] | inhibition of CYP enzyme CYP1A2 ([4]; human liver microsome) | IC50 ([4]; human liver microsome, read-out: inhibition of CYP enzyme CYP1A2) [µM] | activity on CYP2C9, times better than that of the reference compound ([3]; versus Poziotinib) [times] | IC50 [4] [µM] | inhibition of CYP enzyme CYP1A2 ([4]; microsomes)
1 | C=CC(=O)N1[C@@H]2CC[C@H]1C[C@H](Oc1cc3c(Nc4ccc(Cl)c(Cl)c4F)ncnc3cc1OC)C2 [Example 8] | 30 ± 7 | 4.19 | 119.71 | significantly better than that of the control compound Poziotinib | 0.006 | – | – | – | – | – | –
2 | C=CC(=O)N1CCC(Oc2cc3c(Nc4ccc(Cl)c(Cl)c4F)ncnc3cc2OC)CC1 [Poziotinib, reference compound] | 54 ± 12 | 7.55 | 115.6 | – | – | 8 | no inhibitory activity | > 50 | – | – | –
3 | C=CC(=O)N1[C@@H]2CC[C@H]1C[C@H](Nc1cc3c(Nc4ccc(Cl)c(Cl)c4F)ncnc3cc1OC)C2 [Example 38] | – | – | – | – | 0.008 | 16 | – | – | 2 | > 50 | no inhibitory activity
